# Measured values reported in publication PMC10541198, “Specific quinone reductase 2 inhibitors reduce metabolic burden and reverse Alzheimer’s disease phenotype in mice” (The Journal of Clinical Investigation, 2023).
# “And” between values parts separate entries of the source, which are not always exact repeats. Equal entries are not always repeated.
# Tested on: 4-HNE
# Assay: IHC of 4-HNE in 5xFAD brain sections
# Assay type: in vivo, mouse
# Design: 4-HNE upper quartile / 4-HNE lower quartile: unit not given here
# Conditions: for 4-HNE distribution (F test) / 4-HNE lower quartile / 4-HNE normalized volume (individual mice) / 4-HNE upper quartile: CA1, 5xFAD 1 month; for Figure 9A, IHC signal / Sup. Fig. 6-1A, IHC signal: individual animals; for 4-HNE vs vehicle: cortex, 5xFAD 1 month
# Excerpt: Following the behavioral experiments, we assessed brain pathologies associated with AD present in the 5xFAD mice ([37]). Therefore, 5 days following the last behavioral experiment, and 1 month after the start of YB-537 consumption, mice were sacrificed, and coronal brain sections were used for IHC. Since the CA1 region of the hippocampus is affected during AD pathogenesis ([37]), and this brain region is involved in the behavioral paradigms used here, we acquired images of CA1. This was done with an Olympus IX83 confocal microscope using the same settings, antibodies, and exposures in all mice. Images were analyzed using Imaris (Bitplane; see methods). For each mouse, 3 coronal sections were used per antibody. In each section, the same region of CA1 was acquired, using the same image frame size and resolution, at all possible depths of the section — using a Z-stack of the whole section — to allow measurement of the fluorescent antibody marker volume, which was normalized to the brain volume from which it was taken. First, we measured oxidative stress, as indicated by 4-HNE ([38]) (Abcam, ab48506).
# Perfused and fixed brain slices were blocked with 10% normal donkey serum (DNS) and 0.2% triton (Sigma-Aldrich) in PBS. Antibodies, including 4-HNE (AbCam, ab48506), Iba1 (AbCam, ab5076), AT-8 (Thermo, MN1020), Amyloid β (AbCam, ab201060), diluted in PBS with 10% DNS, were incubated at 4°C overnight. Secondary antibodies including donkey-anti-goat Alexa Fluor 568 (AbCam, ab175704), donkey-anti-mouse Cy 5 (Jackson Immuno Research, 715-175-151), and donkey-anti-rabbit DyLight 488 (AbCam, ab98488) all diluted 1:500 in PBS with 1% BSA, were applied to the slices at RT for 2 hours the next day. Slices were mounted onto glass slides using DAPI containing Vectashield (H-1200). Images were taken using a confocal microscope (Olympus IX83). Three slices were used per mouse per antibody. Tiling images of the dorsal CA1 and cortex (Bregma: –1.58mm to –2.30mm) were taken using ×20 objective, acquiring a Z-stack of the whole section. Analysis of the images was done blind by an experimenter unaware of the experimental conditions or details, using Imaris (Bitplane) software. A surface reconstruction module was used to extract the data as volumes of the used markers (4-HNE, phospho-tau, amyloid β, GFAP, and Iba1). Marker volume and intensity were normalized to the corresponding brain volume. The normalized value was averaged for each triplicate and presented here. […]
# Brains were then briefly removed and placed in chilled, 4% PFA for 48 h, f oll owe d by immersion in 30% sucrose in 0.1 M PBS for a furt her 48 h. Bra i ns wer e t h e n stored at -80°C, until t he y were sliced into 40µm coronal sections usinga Lei ca CM 1950cryostat. Sli ces were then washed x3 in PBS and bl oc ke d for 1 h at RT using 10% normal donkey serum (DNS) and 0.2% triton (Sigma-Aldrich) in PBS. Antibodies, including 4- HNE (1:500, AbCam, ab48506), Iba1 (1:2,000, AbCam, ab5076), GFAP (Abcam, ab53554), phospho- tau (1:1,000, Thermo, MN1020) and amyloid β (1:1,000, AbCam, ab201060) diluted in PBS with 10% DNS were incubated at 4°C overnight. The next day, the slices were washed x3 times in PBS, and secondary antibodies including donkey anti goat A l e x a Fluor 568 (AbCam, ab175704), donkey anti-mouse Cy 5 (Jackson Immuno Research, 715- 175- 151) and donkey anti-rabbit DyLight 488 (AbCam, ab98488) all diluted 1:500 in PBS with 1% BSA, were applied to the slices at RT for 2 h. Following the incubation, the slices were washed x3 times in PBS, mounted onto gl ass slides, were uniformly covered in DAPI containing Vectashield (H-1200) and coverslips were a dde d. […]
smiles,measurement,setting,value
Cc1ccc(-c2cn3cccc(C)c3n2)cc1S(=O)(=O)N1CCNCC1 [YB-537],4-HNE distribution (F test),Females,significantly changes distribution
same,4-HNE lower quartile,Females,0.0409
same,4-HNE normalized volume (individual mice),Females,0.0514 and 0.0389 and 0.0542 and 0.0413 and 0.0409 and 0.0433 and 0.0449
same,4-HNE upper quartile,Females,0.0514
same,4-HNE normalized volume (individual mice),Males,0.0457 and 0.0892 and 0.0543 and 0.0490 and 0.0489 and 0.0313 and 0.0587 and 0.0539 and 0.0508
same,4-HNE normalized volume (individual mice),Males + Females,0.0514 and 0.0389 and 0.0542 and 0.0313 and 0.0587 and 0.0539 and 0.0508 and 0.0457 and 0.0892 and 0.0543 and 0.0490 and 0.0489 and 0.0413 and 0.0409 and 0.0433 and 0.0449
same,4-HNE lower quartile,both sexes,0.0418
same,4-HNE upper quartile,both sexes,0.0541
same,4-HNE distribution (F test),total population,tends to alter distribution
same,"Figure 9A, IHC signal",Cortex,0.0148 and 0.0125 and 0.0103 and 0.0159 and 0.0128 and 0.0161 and 0.0104 and 0.0145 and 0.0118
same,"Sup. Fig. 6-1A, IHC signal",Females,0.0214 and 0.0277 and 0.0236 and 0.0333 and 0.0429 and 0.0318 and 0.0155
same,"Figure 9A, IHC signal",Hippocampus,0.0222 and 0.0139 and 0.0101 and 0.0187 and 0.0170 and 0.0160 and 0.0186 and 0.0121 and 0.0197
same,"Sup. Fig. 6-1A, IHC signal",Males + Females,0.0231 and 0.0112 and 0.0400 and 0.0392 and 0.0271 and 0.0198 and 0.0429 and 0.0318 and 0.0155 and 0.0214 and 0.0277 and 0.0236 and 0.0333 and 0.0301 and 0.0174 and 0.0275
same,"Sup. Fig. 6-1A, IHC signal",Males,0.0231 and 0.0112 and 0.0400 and 0.0392 and 0.0271 and 0.0198 and 0.0301 and 0.0174 and 0.0275
same,4-HNE vs vehicle,females,not significantly altered
same,4-HNE vs vehicle,males,not significantly altered
same,4-HNE vs vehicle,total population,not significantly altered
